Read-outs that look alike come from different tables or passages of the source.
Tests used:
IL-6 = assay: THP-1 AlphaLISA IL-6 cytokine assay (differentiated THP-1 cells); format: cell-based; conditions: Homo sapiens
Procedure, shortened: (§1)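 PMA-differentiated THP-1 cells were preincubated 30 min with compound, stimulated with LPS for 24 h, then nigericin for 1 h, all at 37 °C. Supernatant IL-1β and IL-6 were quantified by AlphaLISA. % inhibition is normalised to +LPS and −LPS controls per cytokine.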

[1] = system: cryo-preserved hepatocytes; assay: Hepatocyte stability assay, mouse; format: in vitro ADME; conditions: mouse, hepatocytes
Procedure, shortened: (§2)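 Cryopreserved hepatocytes at 0.5×10^6 cells/mL in Leibovitz buffer, 37 °C, with 10 μM compound (0.1% DMSO), duplicate. Samples at 0-60 min, acetonitrile quench, LC-MS/MS; intrinsic clearance and half-life from ln % remaining versus time, with buffer-only incubations as control.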

[2] = Hepatocyte stability assay, mouse; format: in vitro ADME; conditions: mouse, hepatocytes, T½
Procedure, shortened: as §2

[3] = system: NRF2 (nuclear factor erythroid 2-related factor 2); assay: NRF2 +/-GSH activation assay (DiscoverX PathHunter NRF2 translocation kit, U2OS cells); format: cell-based; conditions: Homo sapiens
IL-1β = assay: THP-1 AlphaLISA IL-1β cytokine assay (differentiated THP-1 cells); format: cell-based; conditions: Homo sapiens
Procedure, shortened: as §1

[4] = system: cryo-preserved hepatocytes; assay: Hepatocyte stability assay, human; format: in vitro ADME; conditions: human, hepatocytes
Procedure, shortened: as §2

[5] = Hepatocyte stability assay, human; format: in vitro ADME; conditions: human, hepatocytes, T½
Procedure, shortened: as §2

plasma protein [6] = assay: Plasma protein binding (rapid equilibrium dialysis), mouse; format: in vitro ADME; conditions: 5 μM compound, 4 hours
Method: (§3) Equilibrium dialysis is an accurate and reliable method for determining protein binding affinities to chemical or biological substances of low molecular weight. The Rapid Equilibrium Dialysis (RED) plate is specifically designed and extensively validated for plasma protein binding assays. It is also designed for minimal non-specific binding (Thermo Fisher).
(§4) • Phosphate buffered saline (PBS) pH 7.4 was prepared using PBS tablets as per the manufacturer's instructions. • Compound and marker stocks were prepared at 10 mM in DMSO and further diluted to 100× the assay concentration in DMSO. • Plasma was thawed on the day of the assay and centrifuged. The supernatant was transferred to a fresh vessel and the pH adjusted to pH 7.4 using lactic acid or sodium hydroxide.
(§5) Pre-prepared 100× assay compound stocks were spiked 1:100 into pH adjusted plasma. 200 μL of spiked plasma was added to the red compartment of the rapid equilibrium dialysis (RED) device for each replicate. 350 μL of PBS was added to the buffer compartment. The plate was sealed with a breathable lid and shaken on an orbital shaker in a 37° C. incubator, 5% CO2 for 4 hours.
(§6) Standard final incubation conditions were 5 μM compound in plasma containing 1% (v/v) DMSO.
(§7) A sample of the plasma/compound mixture was taken, mixed with an equal volume of PBS and quenched 1:3 with ice-cold acetonitrile containing internal standard. Methanol was also added to matrix match with calibration curve samples. This was the t=0 sample.
(§8) Post-incubation, plasma and buffer were sampled from their respective RED device compartments into separate tubes containing an equal volume of the alternate matrix for each replicate. Samples were quenched 1:3 with ice-cold acetonitrile containing internal standard. Methanol was also added to matrix match with calibration curve samples.
Calibration curves were prepared in methanol and spiked such that the matrix was equivalent to the assay samples. […]
(§9) Fraction unbound, percent bound and percent recovery were the standard assay parameters reported. They were calculated using the following equations: […]

plasma protein [7] = assay: Plasma protein binding (rapid equilibrium dialysis), human; format: in vitro ADME; conditions: Human plasma, 5 μM compound, 4 hours
Method: as §3, §4, §5, §6, §7, §8
Calibration curves were prepared in methanol and spiked such that the matrix was equivalent to the assay samples.
Quenched samples were mixed thoroughly and protein precipitated at −20° C. for a minimum of 12 hours. Samples were then centrifuged at 4° C. Supernatants were transferred to a fresh 96 well plate for analysis.
Positive control markers were included.
as §9
An example compound of formula (I) was tested in this assay. Reference Example 2 (RE2) (which corresponds to Example 49 in WO2020/222011 (Sitryx Therapeutics, 2020)) was used as a comparator compound.

[8] = THP-1, differentiated THP-1 cells, LPS 24 hr then Nigericin 1 hour, read-out: IL-6 (IC50)
[9] = U2OS, +GSH, normalised to dimethyl fumarate high control, read-out: NRF2 activation Emax, +GSH
[10] = U2OS, −GSH, normalised to dimethyl fumarate high control, read-out: NRF2 activation Emax, −GSH
[11] = +GSH, U2OS PathHunter cells, 6 hours, read-out: NRF2 activation EC50, +GSH
[12] = −GSH, U2OS PathHunter cells, 6 hours, read-out: NRF2 activation EC50, −GSH
[13] = THP-1, differentiated THP-1 cells, LPS 24 hr then Nigericin 1 hour, read-out: IL-1β (IC50)
[14] = U2OS, 6 h, read-out: NRF2 activation EC50, +GSH
[15] = U2OS, 6 h, read-out: NRF2 activation EC50, −GSH
[16] = U2OS, read-out: NRF2 activation Emax, +GSH
[17] = U2OS, read-out: NRF2 activation Emax, −GSH

Row | SMILES | IC50 (IL-6; [8]) | Clint [1] | half-life at 10 μM [2] | EC50 [3, 11] | EC50 [3, 12] | IC50 (IL-1β; [13]) | IC50 (IL-1β; THP-1, differentiated THP-1 cells, footnote a: data from repeated experiments, read-out: IL-1β (IC50), data from repeated experiments) | Clint [4] | half-life at 10 μM [5] | Binding (%) (plasma protein [6]) | Binding (%) (plasma protein [7]) | Emax [3, 9] | Emax [3, 10] | IC50 (IL-6; THP-1, read-out: IL-6 (IC50)) | EC50 [3, 14] | EC50 [3, 15] | Emax [3, 16] | Emax [3, 17] | IC50 (IL-1β; THP-1, read-out: IL-1β (IC50))
1 | C/C=C(\CC(=O)N[C@@H](C)c1ccc(C(F)(F)F)cc1)C(=O)O [Example 42, (S,E)-2-(2-oxo-2-((1-(4-(trifluoromethyl)phenyl)ethyl)amino)ethyl)but-2-enoic acid] | – | 3 μL min^−1 10^−6 cells | 323 min | – | – | – | – | <3 μL min^−1 10^−6 cells | > 460 min | – | – | – | – | > 68.1 µM | > 100 µM | > 100 µM | 3% | 8% | 2.3 µM
2 | C=C(CC(=O)N[C@@H](C)c1ccc(C(F)(F)F)cn1)C(=O)OCCO [Example 34, 2-hydroxyethyl (S)-2-methylene-4-oxo-4-((1-(5-(trifluoromethyl)pyridin-2-yl)ethyl)amino)butanoate] | 25.8 µM | 24 μL min^−1 10^−6 cells | 71 min | > 100 µM | 5.7 µM | 14.8 µM | – | 11 μL min^−1 10^−6 cells | 137 min | – | – | 16% | 81% | – | – | – | – | – | –
3 | C=C(CC(=O)N[C@@H](C)c1ccc(C(F)(F)F)cn1)C(=O)OC1CCN(S(C)(=O)=O)CC1 [Example 31, 1-(methylsulfonyl)piperidin-4-yl (S)-2-methylene-4-oxo-4-((1-(5-(trifluoromethyl)pyridin-2-yl)ethyl)amino)butanoate] | – | 34 μL min^−1 10^−6 cells | 35 min | – | – | – | – | 11 μL min^−1 10^−6 cells | 138 min | – | – | – | – | 13.3 µM | > 100 µM | 43.3 µM | 27% | 82% | 2.4 µM
4 | C=C(CC(=O)N[C@@H](C)c1ccc(C(F)(F)F)cc1)c1nnn[nH]1 [Example 57, (S)-3-(1H-tetrazol-5-yl)-N-(1-(4-(trifluoromethyl)phenyl)ethyl)but-3-enamide] | > 10 µM | <3 μL min^−1 10^−6 cells | > 460 min | > 100 µM | 46.8 µM | 1.9 µM | – | <3 μL min^−1 10^−6 cells | > 460 min | – | – | 48.5% | 55% | – | – | – | – | – | –
5 | C=C(CC(=O)N[C@@H](C)c1ccc(C(F)(F)F)cc1)C(=O)OC1CCN(S(C)(=O)=O)CC1 [Example 22, 1-(methylsulfonyl)piperidin-4-yl (S)-2-methylene-4-oxo-4-((1-(4-(trifluoromethyl)phenyl)ethyl)amino)butanoate] | 3.6 µM | 99 μL min^−1 10^−6 cells | 13 min | > 100 µM | > 100 µM | 7.1 µM | – | 49 μL min^−1 10^−6 cells | 37 min | – | – | 8% | 3% | – | – | – | – | – | –
6 | C=C(CC(=O)N[C@@H](C)c1ccc(C(F)(F)F)cn1)C(=O)OC1CN(S(C)(=O)=O)C1 [Example 37, 1-(methylsulfonyl)azetidin-3-yl (S)-2-methylene-4-oxo-4-((1-(5-(trifluoromethyl)pyridin-2-yl)ethyl)amino)butanoate] | 7.29 µM | 104 μL min^−1 10^−6 cells | 12 min | > 100 µM | 15.8 µM | 1.7 µM | – | 50 μL min^−1 10^−6 cells | 25 min | – | – | 11% | 90% | – | – | – | – | – | –
7 | C=C(CC(=O)N[C@@H](C)c1ccc(C(F)(F)F)cc1)C(=O)OC1CS(=O)(=O)C1 [Example 27, 1,1-dioxidothietan-3-yl (S)-2-methylene-4-oxo-4-((1-(4-(trifluoromethyl)phenyl)ethyl)amino)butanoate] | 1.4 µM | 215 μL min^−1 10^−6 cells | 6 min | > 100 µM | 6.3 µM | 3.3 µM | – | 126 μL min^−1 10^−6 cells | 12 min | – | – | 10% | 84% | – | – | – | – | – | –
8 | C=C(CC(=O)N[C@@H](C)c1ccc(C(F)(F)F)cn1)C(=O)OC1CS(=O)(=O)C1 [Example 33, 1,1-dioxidothietan-3-yl (S)-2-methylene-4-oxo-4-((1-(5-(trifluoromethyl)pyridin-2-yl)ethyl)amino)butanoate] | 3.64 µM | 205 μL min^−1 10^−6 cells | 10 min | – | – | 1.82 µM | – | 151 μL min^−1 10^−6 cells | 11 min | – | – | – | – | – | – | – | – | – | –

The next lines start with results.

Row | IC50 (IL-6; [8]) | Clint [1] | half-life at 10 μM [2] | EC50 [3, 11] | EC50 [3, 12] | IC50 (IL-1β; [13]) | IC50 (IL-1β; THP-1, differentiated THP-1 cells, footnote a: data from repeated experiments, read-out: IL-1β (IC50), data from repeated experiments) | Clint [4] | half-life at 10 μM [5] | Binding (%) (plasma protein [6]) | Binding (%) (plasma protein [7]) | SMILES | Emax [3, 9] | Emax [3, 10] | IC50 (IL-6; THP-1, read-out: IL-6 (IC50)) | EC50 [3, 14] | EC50 [3, 15] | Emax [3, 16] | Emax [3, 17] | IC50 (IL-1β; THP-1, read-out: IL-1β (IC50))
9 | > 56.2 µM | 3 μL min^−1 10^−6 cells | 450 min | > 100 µM | > 100 µM | 3.7 µM | 5.6 µM | <3 μL min^−1 10^−6 cells | > 460 min | – | – | C=C(CC(=O)NC1(c2ccc(C(F)(F)F)cc2)CCC1)C(=O)O [Example 5, 2-methylene-4-oxo-4-((1-(4-(trifluoromethyl)phenyl)cyclobutyl)amino)butanoic acid] | 0% | 17% | – | – | – | – | – | –
10 | 4 µM | 199 μL min^−1 10^−6 cells | 8 min | > 100 µM | 9.05 µM | 4.7 µM | – | 23 μL min^−1 10^−6 cells | 65 min | – | – | C=C(CC(=O)N[C@@H](C)c1ccc(C(F)(F)F)cc1)C(=O)OC1CCN(C)CC1 [Example 24, 1-methylpiperidin-4-yl (S)-2-methylene-4-oxo-4-((1-(4-(trifluoromethyl)phenyl)ethyl)amino)butanoate] | 30% | 78% | – | – | – | – | – | –
11 | 7.27 µM | 619 μL min^−1 10^−6 cells | 3.5 min | > 100 µM | 19.2 µM | 8.2 µM | – | 116 μL min^−1 10^−6 cells | 10 min | – | – | C=C(CC(=O)NC1(c2ccc(C(F)(F)F)cc2)CCC1)C(=O)OC1CCN(S(C)(=O)=O)CC1 [Example 9, 1-(methylsulfonyl)piperidin-4-yl 2-methylene-4-oxo-4-((1-(4-(trifluoromethyl)phenyl)cyclobutyl)amino)butanoate] | 55% | 109% | – | – | – | – | – | –
12 | – | – | – | – | – | – | – | – | – | >99% | >99% | C=C(CC(=O)OCCCCCCCC)C(=O)OCC(=O)O [RE2, reference compound] | – | – | – | – | – | – | – | –
13 | 6.7 µM | 130 μL min^−1 10^−6 cells | 13 min | > 100 µM | 22.7 µM | 10.3 µM | – | 39 μL min^−1 10^−6 cells | 38 min | – | – | C=C(CC(=O)N[C@@H](C)c1ccc(C(F)(F)F)cc1)C(=O)OCCN1CCOCC1 [Example 29] | 22% | 86% | – | – | – | – | – | –

— patent publication US20240245691A1 (Sitryx Therapeutics Limited, priority 2021, published 2024)
